# Reference: patent US20090036407A1, “FLEA CONTROL METHOD” (priority 2007, published 2009)
# System: eggs of C. felis
# Assay: Eggs and larvae of C. felis, egg to adult development assay (Test A, Test Example 1)
# Type: in vivo
# Settings: 30 eggs x 3 replicates, 28 days
# Description: Eggs and Larvae of C. felis—Egg to Adult Development Assay A larval support media was prepared consisting of 1 g dried bovine blood, 1 g dog biscuit and 5 g of fine sand. Two grams of the larval support media were placed into a 30 mL container for treatment with the test compound and drying. The test compound (3-bromo-N-[4-chloro-2-methyl-6-(methylcarbamoyl)phenyl]-1-(3-chloropyridin-2-yl)-1H-pyrazole-5-carboxamide) was prepared in acetone and serially diluted prior to testing. The concentrations used were as follows: 1 ug/uL, 0.5, 0.25, 0.125, 0.0625 ug/uL. 30 eggs of C. felis were placed into the culturing medium. Each concentration was replicated 3 times giving a total of 90 eggs per dose level. The untreated control was treated with acetone only. The containers were placed into a temperature and humidity controlled room and maintained for 28 days. After the incubation period had elapsed the containers were placed into a freezer for 1 hour. The adults and pupae were counted and % of adults and pupae that developed at each dose level was calculated. The activity was compared to Methoprene.
# [1] = concentration 0.0625 (ug/uL) in treated larval support media
# [2] = concentration 0.125 (ug/uL) in treated larval support media
# [3] = concentration 0.25 (ug/uL) in treated larval support media
# [4] = concentration 0.5 (ug/uL) in treated larval support media
# [5] = concentration 1.0 (ug/uL) in treated larval support media
SMILES,% eggs developed into adults [1],% eggs developed into adults [2],% eggs developed into adults [3],% eggs developed into adults [4],% eggs developed into adults [5]
COC(C)(C)CCC[C@H](C)C/C=C/C(C)=C/C(=O)OC(C)C (racemic) [Methoprene],14.4%,3.3%,1.1%,0.0%,0.0%
"CNC(=O)c1cc(Cl)cc(C)c1NC(=O)c1cc(Br)nn1-c1ncccc1Cl [Test Compound, 3-bromo-N-[4-chloro-2-methyl-6-(methylcarbamoyl)phenyl]-1-(3-chloropyridin-2-yl)-1H-pyrazole-5-carboxamide]",18.9%,0.0%,0.0%,0.0%,0.0%
